Like-named read-outs stand apart in the source and are kept apart here.
Columns and labels:
Test in all cases: CellTiter-Glo, NCI60 panel
Format in all cases: cell-based
[1] = tested on: RPMI-8226; details: Leukemia; for GI50: Homo sapiens
Text: (§1) Identification of tumor types that are the most sensitive to the KSP inhibitors of the present invention can be accomplished using an unbiased approach that uses several cell-based assays. The assays chosen were as follows: • CellTiter-Glo®. This is an assay designed to measure ATP concentration in a cell culture, and can be correlated to cell number. Briefly CellTiter-Glo® (Promega Corporation) is a homogeneous method using the single CellTiter-Glo® reagent to detect ATP wherein ATP in the assay drives the activity of a thermostable luciferase to create a luminescent signal which can then be measured and correlated with the number of viable cells. Briefly, for adherent cells, 1,000 to 5,000 cells/well were plated in 96-well plates (100 μl/well) and let to adhere for 24 hours before being treated with drug. For non-adherent cells, 1,000 to 10,000 cells/well were plated in 96-well plates (100 μl/well) and immediately treated with drug. Drug dilutions were prepared in DMSO at 1000 times the final concentration. These dilutions were then diluted 1/100 in growth media before being added to the cells (11 μl/well) to achieve the desired final concentration. After 48 h in a 37° C. tissue culture incubator, the plates were processed for the CellTiter-Glo®assay according to the manufacturer's instructions. Protocol for a 72 hour cell proliferation assay: The 72 hour assay was performed the same way as the 48 hour assay except for the following modifications: For adherent cells, 500 to 5,000 cells/well were plated in 96-well plates (90 μl/well cell growth media) and left to adhere for 24 hours before being treated with drug. For non-adherent cells, 1,000 to 10,000 cells/well were plated in 96-well plates (90 μl/well cell growth media) and immediately treated with drug. Data values presented represent the concentration of test compound required for a 50% reduction in growth. • LDH release. The Cytotoxicity Detection KitPLUS (LDH) assay (Roche Diagnostics, Manheim, Germany) measures the amount of LDH released in the media by dying cells; LDH catalyzes the conversion of lactate into pyruvate. The enzymatic reaction is coupled to a chemical reaction that uses a tetrazolium salt to form a formazan that is red and can be detected by its absorbance at 490 nm. This assay measures the amount of cell death after drug treatment. Cells were plated at 10,000 cells/well in 96-well plates (100 μl/well). Adherent cells were let to adhere for 24 hours before being treated with drug, whereas non-adherent cells were immediately treated with drug. Drug dilutions were prepared in DMSO at 1000 times the final concentration. These dilutions were then diluted 1/100 in growth media before being added to the cells (11 μl/well) to achieve the desired final concentration. After 48 h in a 37° C. tissue culture incubator, the plates were processed for the Cytotoxicity Detection KitPLUS (LDH) assay according to the manufacturer's instructions. The media only values were subtracted from all the data points before analysis. Data values presented correspond to the compound concentration wherein LDH output is at half maximal level. • Caspase-Glo® 3/7. The Caspase-Glo® 3/7 Assay (Promega Corporation) is a homogeneous luminescent assay that measures caspase-3/7 activities. The assay provides a proluminescent caspase-3/7 DEVD-aminoluciferin substrate and a thermostable luciferase in a reagent optimized for caspase-3/7 activity, luciferase activity and cell lysis. Adding the single Caspase-Glo® 3/7 Reagent results in cell lysis, followed by caspase cleavage of the substrate. This liberates free aminoluciferin, which is consumed by the luciferase, generating a luminescent signal. The signal is proportional to caspase-3/7 activity. Data values presented correspond to the compound concentration wherein caspase 3/7 activity is at half maximal level. […]

[2] = tested on: 786-0; details: Renal; for GI50: Homo sapiens
Text: as §1

[3] = tested on: KM12; details: Colon; for GI50: Homo sapiens
Text: as §1

[4] = tested on: SN12C; details: Renal; for GI50: Homo sapiens
Text: as §1

[5] = tested on: CCRF-CEM; details: Leukemia; for GI50: Homo sapiens
Text: as §1

[6] = tested on: NCI/ADR-RES; details: Ovarian; for GI50: Homo sapiens
Text: as §1

[7] = tested on: BT-549; details: Breast; for GI50: Homo sapiens
Text: as §1

[8] = tested on: PC-3; details: Prostate; for GI50: Homo sapiens
Text: as §1

[9] = tested on: HS 578T; details: Breast; for GI50: Homo sapiens
Text: as §1

[10] = tested on: MDA-MB-435; details: Melanoma; for GI50: Homo sapiens
Text: as §1

[11] = tested on: LOX IMVI; details: Melanoma; for GI50: Homo sapiens
Text: as §1

[12] = tested on: HOP-92; details: NSCL; for GI50: Homo sapiens
Text: as §1

[13] = tested on: NCI-H226; details: NSCL; for GI50: Homo sapiens
Text: as §1

[14] = tested on: HOP-62; details: NSCL; for GI50: Homo sapiens
Text: as §1

[15] = tested on: SNB-75; details: CNS; for GI50: Homo sapiens
Text: as §1

[16] = tested on: DU-145; details: Prostate; for GI50: Homo sapiens
Text: as §1

[17] = GI50 in nM, read-out: Log(GI50) (converted)

## CC(C)(C)[C@H](c1nc(-c2cc(F)ccc2F)cn1Cc1ccccc1)N(CC[C@H](N)CF)C(=O)CO [Compound IIa]
[1]; [17]
  GI50: 0.351 nM
[1]; read-out: GI50
  GI50: 0.351 nM
[1]
  Differential vs mean Log(GI50): 0.786
[2]; [17]
  GI50: 10 nM
[2]; read-out: GI50
  GI50: 10 nM
[2]
  Differential vs mean Log(GI50): −0.669
[3]
  Differential vs mean Log(GI50): 0.705
[3]; [17]
  GI50: 0.423 nM
[3]; read-out: GI50
  GI50: 0.423 nM
[4]; [17]
  GI50: 10 nM
[4]; read-out: GI50
  GI50: 10 nM
[4]
  Differential vs mean Log(GI50): −0.669
[5]; [17]
  GI50: 0.215 nM
[5]; read-out: GI50
  GI50: 0.215 nM
[5]
  Differential vs mean Log(GI50): 0.999
[6]; [17]
  GI50: 4.18 nM
[6]; read-out: GI50
  GI50: 4.18 nM
[6]
  Differential vs mean Log(GI50): −0.290
[7]
  Differential vs mean Log(GI50): 0.423
[7]; [17]
  GI50: 0.809 nM
[7]; read-out: GI50
  GI50: 0.809 nM
[8]; [17]
  GI50: 10 nM
[8]; read-out: GI50
  GI50: 10 nM
[8]
  Differential vs mean Log(GI50): −0.669
[9]
  Differential vs mean Log(GI50): 0.989
[9]; [17]
  GI50: 0.22 nM
[9]; read-out: GI50
  GI50: 0.22 nM
[10]; [17]
  GI50: 0.152 nM
[10]; read-out: GI50
  GI50: 0.152 nM
[10]
  Differential vs mean Log(GI50): 1.149
[11]; [17]
  GI50: 10 nM
[11]; read-out: GI50
  GI50: 10 nM
[11]
  Differential vs mean Log(GI50): −0.669
[12]; [17]
  GI50: 10 nM
[12]; read-out: GI50
  GI50: 10 nM
[12]
  Differential vs mean Log(GI50): −0.669
[13]; [17]
  GI50: 10 nM
[13]; read-out: GI50
  GI50: 10 nM
[13]
  Differential vs mean Log(GI50): −0.669
[14]; [17]
  GI50: 10 nM
[14]; read-out: GI50
  GI50: 10 nM
[14]
  Differential vs mean Log(GI50): −0.669
[15]
  Differential vs mean Log(GI50): −0.669
[15]; [17]
  GI50: 10 nM
[15]; read-out: GI50
  GI50: 10 nM
[16]; [17]
  GI50: 0.435 nM
[16]; read-out: GI50
  GI50: 0.435 nM
[16]
  Differential vs mean Log(GI50): 0.693

Reference: US8252832B2, “Kinesin inhibitors as cancer therapeutics” (Novartis AG, priority 2007, dated 2012)
